{
  "source": "patent US12714691B2",
  "about": "“Method of treating triple-negative breast cancer” (THE UNITED STATES OF AMERICA, AS REPRESENTED BY THE …, priority 2018, dated 2026)",
  "key": {"NCI-60 cell lines": {"test_system": "NCI-60 cell lines", "experiment": "NCI-60 compound activity (z score of GI50, sulforhodamine B total protein assay, DTP)", "format": "cell-based", "conditions": "for Activity (Z score) against breast cancer cell lines: 4 of 5 tested breast cancer cell lines (MCF7, HS578T, BT549, T47D); for Anticancer activity compared with all available (~178) FDA-approved drugs: HS 578T and BT-549 cell lines, FIG. 7B; for Activity (Z score) pattern against NCI-60 cell lines: certain breast cancer, colorectal cancer and ovarian cancer cell lines, FIG. 6; for Activity (Z score) against ovarian cancer cell lines: four of seven ovarian cancer cell lines (OVCAR-3, OVCAR-4, OVCAR-8, NCI-ADR-RES); for Effectiveness compared with 13 approved breast cancer drugs: triple negative breast cancer cell lines HS 578T and BT-549 (two of three NCI-60 TNBC lines), FIG. 7A; for Activity (Z score) against colorectal cell lines: two of seven colorectal cell lines (COLO205 and HCC2998)", "protocol": "(§1) To determine reproducibility across institutes and assay types, we tested a selected set of NCI-60-screened compounds for activity in the GDSC cell line panel (Table 1). Drug data reproducibility may be affected by potential sources of data divergence such as assay type and duration for drug treatment. Noting that the GDSC and the NCI/DTP used different assays to determine their IC50 values (Cell Titer Glo measurements of ATP at 72 hours post-treatment versus sulforhodamine B measurement of total protein at 48 hours post-treatment), we compared 19 drugs referenced by their NSCs (National Service Center identifiers) and associated with a range of mechanisms of action types. The drugs with the strongest correlations were oxyphenisatin acetate (Acetalax) (FIG. 5a, R=0.80, p=1.1×10^−10, N=43) and bisacodyl (FIG. 5b, R=0.84, p=9.0×10^−13, N=44). These FDA-approved laxatives lacked pre-existing data in the CTRP, CCLE and GDSC.\nAcetalax and bisacodyl activities against a number of NCI-60 cell lines were obtained.\nNCI-60 drug activity, molecular profiling, and annotation data was obtained from CellMiner (Database Version 2.1). […] Detailed information about CellMiner data preparation is publically available for example, in Reinhold, W. C. et al., Cancer Res. 72:3499-3511 (2012), Reinhold, W. C. et al., Cancer Res. 77:601-612 (2017), Abaan, O. D. et al., Cancer Res. 73:4372-4382 (2013), and Varma, S. et al., PloS One 9: e92047 (2014), as well as being documented within CellMiner.\nCOMPOUND ACTIVITY. Compound activity is indicated as a standardized, ‘z-score’ value derived from measurement of the cell line-specific 50% growth-inhibitory (GIS0) concentration using the sulforhodamine B total protein cytotoxicity assay generated by the Developmental Therapeutics Program (dtp.cancer.gov). In particular, for each compound, the mean and standard deviation of −log 10 [molar GI50] values over the NCI-60 lines are used to center and scale the data."}, "GDSC cell line panel": {"test_system": "GDSC cell line panel", "experiment": "GDSC cell line panel drug activity (IC50, Cell Titer Glo measurement of ATP)", "format": "cell-based", "conditions": "GDSC triple negative breast cancer lines (21); p<7E-10", "protocol": "as §1\nIn this work, the drugs were assessed in a different institution using a different assay using 1,080 cell lines, including 21 triple negative breast cancers (FIG. 8A, B). […]\nDETERMINATION OF PROSPECTIVE TRIPLE NEGATIVE BREAST CANCERS. Transcript expression levels of ERBB2, ESR1, ESR2 and PGR (HER2, estrogen receptor and progesterone receptor) were assessed by GDSC using the Affymetrix Human Genome U219 Array and accessed in CellMinerCDB. […]"}},
  "data": [
    {"molecule": "CC(=O)Oc1ccc(C(c2ccc(OC(C)=O)cc2)c2ccccn2)cc1", "note": "[Bisacodyl]", "values": [
      {"measurement": "Activity (Z score) against breast cancer cell lines", "setting": "NCI-60 cell lines", "value": "robust activity"},
      {"measurement": "Anticancer activity compared with all available (~178) FDA-approved drugs", "setting": "NCI-60 cell lines", "value": "superior anticancer activity"},
      {"measurement": "Activity (Z score) pattern against NCI-60 cell lines", "setting": "NCI-60 cell lines", "value": "strong efficacy"},
      {"measurement": "Activity (Z score) against ovarian cancer cell lines", "setting": "NCI-60 cell lines", "value": "robust activity"},
      {"measurement": "Effectiveness compared with 13 approved breast cancer drugs", "setting": "NCI-60 cell lines", "value": "more effective"},
      {"measurement": "Activity (Z score) against colorectal cell lines", "setting": "NCI-60 cell lines", "value": "robust activity"},
      {"measurement": "Activity compared with the oncology drugs tested", "setting": "GDSC cell line panel", "value": "more active than any of the oncology drugs"}
    ]},
    {"molecule": "CC(=O)Oc1ccc(C2(c3ccc(OC(C)=O)cc3)C(=O)Nc3ccccc32)cc1", "note": "[Oxyphenisatin acetate (Acetalax), Oxyphenisatin acetate]", "values": [
      {"measurement": "Activity (Z score) against breast cancer cell lines", "setting": "NCI-60 cell lines", "value": "robust activity"},
      {"measurement": "Anticancer activity compared with all available (~178) FDA-approved drugs", "setting": "NCI-60 cell lines", "value": "superior anticancer activity"},
      {"measurement": "Activity (Z score) pattern against NCI-60 cell lines", "setting": "NCI-60 cell lines", "value": "strong efficacy"},
      {"measurement": "Activity (Z score) against ovarian cancer cell lines", "setting": "NCI-60 cell lines", "value": "robust activity"},
      {"measurement": "Effectiveness compared with 13 approved breast cancer drugs", "setting": "NCI-60 cell lines", "value": "more effective"},
      {"measurement": "Activity (Z score) against colorectal cell lines", "setting": "NCI-60 cell lines", "value": "robust activity"},
      {"measurement": "Activity compared with the oncology drugs tested", "setting": "GDSC cell line panel", "value": "more active than any of the oncology drugs"}
    ]}
  ]
}
